Data set [1] can be described thus: Body weight gain in sensitized mice (experimental atopic dermatitis model). Format: in vivo. The following applies: painted on auricles twice a day; Compound No. 8 50 µg/ear/dose, prednisolone 5 µg/ear/dose; Days 1, 4 and 7; versus solvent control (ethanol). How it is done: Experimental atopic dermatitis model mice sensitized in the same manner as in Example 1 were examined for influence on body weight gains.
A solution of a test metalloproteinase inhibitor (Compound No. 8; 50 µg/ear/dose, twice a day) in ethanol or a solution of prednisolone (5 µg/ear/dose, twice a day) in ethanol was administered to mice (5 animals per group) by painting onto both sides of a pair of the auricles, not only one hour prior to elicitation but also 0.25, 3, 4, 5 and 6 days post-elicitation. Each mouse was measured for its body weight not only immediately before the start in painting but also on Days 1, 4 and 7 after the start in painting. Each gain in body weight was calculated and considered to indicate an effect on body weight changes affected by said treatments.

The subject of data set [2] is infiltration of leukocytes into an air pouch. Kind of data set: Allergic inflammation model (air pouch model). The class given is in vivo, rats. To be noted: 10 mg/kg or 30 mg/kg into the air pouch or intraperitoneally; 8 hours after the second challenge; dexamethasone 0.1 mg/kg as comparison. How it is done:
Compound No. 8 was dissolved in physiological saline to make the final concentration 2.5 mg/mL (equal to 10 mg/kg) or 7.5 mg/mL (equal to 30 mg/kg) and administered into an air pouch of animals or intraperitoneally at a dose of 4 mL/kg. Dexamethasone was also dissolved in physiological saline to make the final concentration 25 µg/mL (equal to 0.1 mg/kg) and administered into an air pouch of animals at a dose of 4 mL/kg. Administration into such an air pouch was conducted simultaneously with the second challenge while the intraperitoneal administration was 30 minutes prior to the second challenge. Acetylated bovine serum albumin diazo-coupled with arsanilic acid (ABA-AcBSA) was prepared according to the Ouchi et al. and Tabachnick et al. methods as disclosed in Ouchi et al., "Seibutsu Yakukagaku Jikken Koza, Ensho To Allergy (Inflammation and Allergy) I-2", pp.194 to 206, Hirokawa Publishing Co., Japan and Tabachnick et al., The Journal of Biological Chemistry, 234: 1726- 1730, 1959, and mixed with a Freund's complete adjuvant (Difco) at an equal ratio. The mixture was treated using a connection-type glass syringe to form an emulsion which was used as a sensitizing solution. […] The retrieved exudates were measured by a dye-exclusion method using a haematocytometer and the number of exudated leukocytes were counted.

Data set [3] has as its system mouse scratching behavior. Kind of data set: Scratching behavior in experimental atopic dermatitis model. The class given is in vivo, mice. The following applies: for % Inhibition (scratching behavior) / Scratching Behavior (Times) (Average± Deviation): 0.1% in ethanol painted on auricles 1 hour pre-elicitation; for % Inhibition (scratching behavior): 15 to 30 min and 30 to 45 min post-elicitation durations, versus solvent control; for Scratching Behavior (Times) (Average± Deviation): counts for the 15 to 30 min and 30 to 45 min post-elicitation durations. The procedure:
Mice were passively sensitized with anti-DNP IgE Ab and then elicited by painting 0.1% DNFB in ethanol onto both sides of a pair of mouse auricles […] in the same manner as in Example 1. Five minutes pre-elicitation, an ethanolic solution containing 0.3% of Compound No. 20 was painted onto both sides of a pair of the auricles at a dose of 10 µL per each side. Tacrolimus (Fujisawa Pharmaceutical Co., Ltd.) was used as a positive control drug. An ethanolic solution containing 0.1% of the positive control drug was prepared just prior to use and then painted onto the mouse auricles 1 hour pre-elicitation in the same manner as for the painting of Compound No. 20. A negative control group was painted with a solvent alone (6 animals per group).
From the point immediately after elicitation, each mouse was housed individually in a comparted acrylic cage and observed by taking a video without any attendant up to 2 hours after elicitation (Inagaki, N., et al., The European Journal of Pharmacology, 367: 361-371, 1999). After finishing such a video recording, scratching behavior by mouse hind paws to a pair of ears was visually examined for each mouse and integrated scratching behaviors were counted during 6 post-elicitation durations for 20 minutes each; 0 to 20 min., 20 to 40 min., 40 to 60 min., 60 to 80 min., 80 to 100 min., and 100 to 120 min. In this experiment, an action from a start to scratch the ear by the mouse hind paw to a release of the hind paw is counted as one scratching behavior.
Mice were passively sensitized with anti-DNP IgE Ab and then elicited with 0.1% DNFB in ethanol 24 hours post-sensitization in the same manner as in Example 12. One hour pre-elicitation, a 0.1% solution of a metalloproteinase inhibitor (Compound No. 20 or 21) in ethanol was painted onto both sides of a pair of the auricles at a dose of 10 µL per each side. A negative control group was painted with a solvent alone. From the point immediately after the elicitation, each mouse was housed individually in a comparted cage and observed by taking a video without any attendant up to 2 hours thereafter (3 animals per group). In the same manner as in Example 12, scratching behaviors by mouse hind paws were counted for every 15 minutes: 8 post-elicitation durations; 0 to 15 min., 15 to 30 min., 30 to 45 min., 45 to 60 min., 60 to 75 min., 75 to 90 min., 90 to 105 min., and 105 to 120 min.

Consider `CNC(=O)[C@H](Cc1ccc(NC(=N)N)cc1)NC(=O)[C@H](CC(C)C)C(CCCc1ccccc1)C(=O)NO` (single isomer, unassigned) [Compound No. 8, N-[4-(N-hydroxyamino)-2(R)-isobutyl-3(R or S)-(3-phenyltrimethylene)succinyl]-L-4'-guanidophenylalanine-N-methylamide 1 acetate], for which, in data set [1], the “gain in body weight (FIG. 9)” value is recorded as “almost equivalent to that in the solvent control group”. Moreover, the “infiltration of leukocytes into an air pouch (FIG. 13)” value in data set [2] is on record as “significantly inhibited”.

Turning to `CNC(=O)[C@H](Cc1ccc(NC(=N)N)cc1)NC(=O)[C@H](CC(C)C)C(CCCc1ccccc1)C(=O)NO.Cl` (single isomer, unassigned) [Compound No. 20, N-[4-(N-hydroxyamino)-2(R)-isobutyl-3(R or S)-(3-phenyltrimethylene)succinyl]-L-4'-guanidophenylalanine-N-methylamide 1 hydrochloride], in data set [3], the “% Inhibition (scratching behavior)” value came out at 40.7% and the “Scratching Behavior (Times) (Average± Deviation)” value stood at 124.0 ± 43.6 Times. Moreover, in data set [3] (0.3% Compound No. 20 versus 0.1% tacrolimus, painted on auricles), the “inhibitory efficacy on scratching in the 20 to 40 min post-elicitation duration (FIG. 8)” value is recorded as “higher than that of tacrolimus”. Also, in data set [3] (0.3% ethanolic solution painted on auricles 10 µL per side 5 minutes pre-elicitation, observed up to 2 hours), the “efficacy on mouse scratching behavior (FIG. 8)” value is given as “apparently inhibits mouse scratching behavior”.

For `CNC(=O)[C@H](Cc1ccc(N=C(N)N)cc1)NC(=O)[C@@H](CC(=O)NO)CC(C)C.O=S(=O)(O)O` [Compound No. 21, N-[4-(N-hydroxyamino)-2(R)-isobutylsuccinyl]-L-4'-guanidophenylalanine-N-methylamide 1 sulfate], in data set [3], the “% Inhibition (scratching behavior)” value worked out at 54.1% and the “Scratching Behavior (Times) (Average± Deviation)” value worked out at 96.0 ± 32.6 Times.

Source of the values: EP1101496A1, “THERAPEUTIC AGENTS FOR ALLERGIC DISEASES” (FUJI YAKUHIN KOGYO KABUSHIKI KAISHA, priority 1998, dated 2000).
